{"source": "patent EP4722203A1", "about": "“3,4-DIHYDROPHTHALAZIN-1(2H)-ONE DERIVATIVE, AND PREPARATION METHOD THEREFOR AND USE THEREOF” (Academy of Military Medical Sciences, priority 2023, dated 2024)", "test_system": "human multiple myeloma NCI-H929 xenograft tumors", "assay": "In vivo activity of combination therapy with bortezomib or tazemetostat against NCI-H929 transplanted tumor", "parameters": "species or system NOD/SCID mice", "conditions": "I-8 3 mg/kg QD", "protocol": "In this example, the human multiple myeloma NCI-H929 cell line was selected as the cell model to determine the inhibitory effects of compounds, bortezomib (Bort), and tazemetostat (Taze), as single drugs and in combination, on the growth of NOD/SCID mouse transplanted tumors of NCI-H929 tumor cells. The evaluation methods and results are described below.\nHuman multiple myeloma NCI-H929 cells were routinely cultured in RPMI1640 containing 10% fetal bovine serum at 37°C in a 5% CO2 incubator. After three passages in vitro, when the cells reached over 80% confluence and the required confluence rate, the cells were digested and harvested. After washing with PBS, the cells were counted and the cell concentration was adjusted to approximately 5 × 10^7 cells/mL. The cells were then placed in 4 mL centrifuge tubes on ice for later use.\nFemale NOD/SCID mice aged 4-5 weeks were selected and subcutaneously inoculated with NCI-H929 cells ectopically. The mice were held in a lateral position, the forelimb axilla was disinfected with 75% alcohol, and 100 µL of the cell suspension was injected subcutaneously into the axilla using a 1 mL syringe ([…]/100 µL).\nAfter the tumors grew to 90-150 mm^3, the animals were randomly divided into groups, 8 mice in each group, and administered according to different administration methods as follows: • Model control group: Administered with the same volume of Vehicle (DMSO: 0.5% sodium carboxymethyl cellulose: distilled water = 1:1:8) daily by gavage; • Test group 1: administered with I-8 solution at 3 mg/kg (mouse body weight) daily by gavage; • Test group 2: administered with bortezomib (Bort) solution at 1 mg/kg (mouse body weight) twice weekly by gavage; • Test group 3: administered with tazemetostat solution at 100 mg/kg (mouse body weight) daily by gavage; • Test group 4: administered with I-8 at 3 mg/kg (mouse body weight) daily by gavage and bortezomib (Bort) solution at 1 mg/kg (mouse body weight) twice weekly by gavage; • Test group 5: administered with I-8 at 3 mg/kg (mouse body weight) daily by gavage and tazemetostat (Taze) solution at 100 mg/kg (mouse body weight) daily by gavage;\nThe route of administration was oral gavage, and the administration frequency was once daily, for 10 consecutive days. The first day of administration was defined as Day 1 of the experiment. Tumor volume changes in mice were measured and recorded every two days. Tumor volume was measured using a vernier caliper, in which the major axis (a) and minor axis (b) of the tumor were measured, and the tumor volume was calculated as tumor volume V (mm^3) = a x b^2/2. After the experiment, the mice were dissected and the tumor weight was measured. The data were entered and statistically analyzed using GraphPad Prism 6 software. The data are expressed as mean ± SEM (Standard Error of Mean), and one-way ANOVA was used. P ≤ 0.05 was considered statistically significant.", "data": [{"smiles": "CN1Cc2c(NCc3ccc(CN4CCN(c5ccc(C#N)c(F)c5)CC4)cc3)cccc2C(=O)N1C1CCC(=O)NC1=O", "note": "(stereo not shown) [I-8]", "values": [{"measurement": "Average volume (mm^3) (Day 10)", "setting": "Day 10, Bort 1 mg/kg BIW, Taze 100 mg/kg QD, combinations given as + Bort 3 mg/kg BIW / + Taze 3 mg/kg QD", "value": 498.6, "unit": "mm^3"}, {"measurement": "Tumor inhibition rate TGI (%)", "setting": "Bort 1 mg/kg BIW, Taze 100 mg/kg QD, combinations given as + Bort 3 mg/kg BIW / + Taze 3 mg/kg QD", "value": 77.24, "unit": "%"}, {"measurement": "growth of NCI-H929 transplanted tumors (in words)", "setting": "bortezomib 1 mg/kg BIW, tazemetostat 100 mg/kg QD, alone or combined", "value": "effectively inhibits the growth"}, {"measurement": "Initial volume (mm^3)", "setting": "baseline, Bort 1 mg/kg BIW, Taze 100 mg/kg QD, combinations given as + Bort 3 mg/kg BIW / + Taze 3 mg/kg QD", "value": 120.7, "unit": "mm^3"}]}]}
